The test system of assay [1] is S. aureus ATCC 29213. Nature of the assay: MBC assay. The format is cell-based, Staphylococcus aureus. How it is done:
(§1) The staphylococci and enterococci were cultured and maintained on Mueller-Hinton Medium (agar and broth) at pH 7.2; they were incubated aerobically at 37° C. for 24 hours.
(§2) This assay, normally carried out after an MIC assay, determines the minimum concentration of a compound that is lethal to the micro-organism being tested.
(§3) These samples were then individually sub-cultured on non-selective agar medium, under the incubation conditions described above. Following incubation they were examined visually for bacterial growth.
(§4) The following experiments all used S. aureus ATCC 29213 as the test organism. MIC, MBC and DDA assays, as described above, were carried out using a range of different benzoquinones and hydroquinones. Supplemented DDA assays, in the presence of salt, lipid and blood, were also conducted.

Assay [2] has as its system S. aureus ATCC 29213. Nature of the assay: Supplemented disc diffusion assay. The format is cell-based, Staphylococcus aureus. The settings on record: for zone of inhibition at 200 µg/disc: Staphylococcus aureus, ATCC29213, 24 h. How it is done: as §1
(§5) A sterile paper disc was impregnated with a sample of the test compound and a minimum of 30 minutes allowed for the solvents to evaporate as far as possible. The disc was then placed on an agar plate onto which the test micro-organism had been inoculated. The plate was then incubated under the conditions described above, following which it was examined visually for signs of bacterial growth. […] The diameter of this zone of “inhibition” was measured using a ProtoCOL™ automated zone sizer (Synbiosis, Cambridge, UK).
(§6) Performance under these conditions can provide a more reliable indication of activity on topical application. For assays conducted using S. aureus strains, the supplements were defibrinated horse blood (5% v/v), lipid (Tween™ 80 at 1% v/v) and sodium chloride (100 mM). For those using Propionibacterium spp. strains, the supplements were lipid (Tween™ 80 at 1% v/v) and sodium chloride (100 mM).
as §4
(§7) For most DDA assays, 200 μg of each compound was loaded onto each disc.

Assay [3] has as its system S. aureus ATCC 29213. Nature of the assay: Disc diffusion assay (DDA). It counts as cell-based, Staphylococcus aureus. The settings on record: for zone of inhibition at 200 µg/disc: Staphylococcus aureus. How it is done:
as §1, §5
(§8) The area of the zone of inhibition was calculated from the measured zone diameter (D) using the formula π(D/2)^2.
as §7

The subject of assay [4] is S. aureus ATCC 29213. Nature of the assay: MIC assay. The format is cell-based, Staphylococcus aureus. How it is done:
1. Staphylococcus aureus—the principal staphylococcal test micro-organism used in these studies was Staphylococcus aureus ATCC 29213. This strain is the one recommended for QC/QA purposes in Minimum Inhibitory Concentration (MIC) assays by the US Clinical and Laboratory Standards Institute (formerly the NCCLS), an FDA-recognised body.
as §1
This is a standard international method for quantitatively assessing the antimicrobial activity of a compound in a liquid medium. The method used a 96-well microtitre plate, capable of holding about 200 μl of liquid per well. […] The culture media were as described above for the relevant test organisms.
The wells were inoculated with a liquid suspension of freshly grown micro-organism and incubated under the conditions described above. After incubation, the microtitre plate was examined visually (with the aid of a light box) for cloudiness in each well, which would indicate microbial growth. The MIC value was recorded as the lowest concentration of test compound required to inhibit microbial growth, i.e., the lowest concentration for which the liquid in the well remained clear.
The assays were conducted in duplicate and included both negative (culture medium only) and positive (culture medium, diluting solvent and inoculum) controls.
as §4

Assay [5] concerns P. acnes NCTC 737. Nature of the assay: MBC assay. The format is cell-based, Propionibacterium acnes. The following applies: P. acnes NCTC 737. How it is done:
(§9) The Propionibacterium spp organisms were cultured and maintained on Wilkins-Chalgren Anaerobe Medium (agar and broth) at pH 6.0; cultures were incubated anaerobically at 37° C. for 72 hours.
as §2, §3
(§10) MIC, MBC and DDA assays, as described above, were carried out using a range of different benzoquinones and hydroquinones. Supplemented DDA assays, in the presence of salt and lipid, were also conducted.

The test system of assay [6] is P. acnes NCTC 737. Nature of the assay: Supplemented disc diffusion assay. It counts as cell-based, Propionibacterium acnes. The settings on record: P. acnes NCTC 737; activity increases in the presence of lipid. How it is done: as §9, §5, §6, §10, §7
Assay [7] relates to P. acnes NCTC 737. Nature of the assay: Disc diffusion assay (DDA). It counts as cell-based, Propionibacterium acnes. The settings on record: Cutibacterium acnes, NCTC737; P. acnes NCTC 737; unsupplemented agar; 200 μg per disc (2,6-dimethoxy-p-benzoquinone 100 μg); read-out: DDA (diameter of zone of inhibition). How it is done: as §9, §5, §8, §7
Setting [8] is: S. aureus ATCC 29213, Tween 80 at 1% v/v, 200 μg per disc (thymoquinone 50 μg, 2,6-dimethoxy-p-benzoquinone 100 μg).
[9] abbreviates: S. aureus ATCC 29213, defibrinated horse blood 5% v/v, 200 μg per disc (thymoquinone 50 μg, 2,6-dimethoxy-p-benzoquinone 100 μg).
[10] abbreviates: S. aureus ATCC 29213, sodium chloride 100 mM, 200 μg per disc (thymoquinone 50 μg, 2,6-dimethoxy-p-benzoquinone 100 μg).
[11] abbreviates: S. aureus ATCC 29213, unsupplemented agar, 200 μg per disc (thymoquinone 50 μg, 2,6-dimethoxy-p-benzoquinone 100 μg).
Setting [12] is: S. aureus ATCC 29213, Mueller-Hinton broth pH 7.2, aerobic, 37° C., 24 hours.
The mark [13] stands for this setting: ATCC29213, S. aureus ATCC 29213, unsupplemented agar, 200 μg per disc (thymoquinone 50 μg, 2,6-dimethoxy-p-benzoquinone 100 μg), read-out: DDA (diameter of zone of inhibition).
Setting [14] is: Staphylococcus aureus, ATCC29213, read-out: MBC.
Where [15] appears, read: S. aureus ATCC 29213, Tween 80 at 1% v/v, 200 μg per disc (thymoquinone 50 μg, 2,6-dimethoxy-p-benzoquinone 100 μg), read-out: DDA + lipid.
Where [16] appears, read: S. aureus ATCC 29213, defibrinated horse blood 5% v/v, 200 μg per disc (thymoquinone 50 μg, 2,6-dimethoxy-p-benzoquinone 100 μg), read-out: DDA + blood.
Setting [17] is: S. aureus ATCC 29213, sodium chloride 100 mM, 200 μg per disc (thymoquinone 50 μg, 2,6-dimethoxy-p-benzoquinone 100 μg), read-out: DDA + salt.
[18] abbreviates: Staphylococcus aureus, ATCC29213, S. aureus ATCC 29213, Mueller-Hinton broth pH 7.2, aerobic, 37° C., 24 hours, read-out: MIC.

Converted amounts (≈) assume the structure as drawn. Like-named read-outs stand apart in the source and are kept apart here.

As to `Oc1ccc(O)c(Cl)c1` [2-chloro-p-hydroquinone], in the assay with S. aureus ATCC 29213 [1], the MBC was 7.8 µg/mL (≈ 54 µM) and the MIC/MBC ratio is on record as 1. The “DDA + lipid” value with S. aureus ATCC 29213 [2] (setting [8]) was 16.81 mm. Moreover, the “DDA + blood” value with S. aureus ATCC 29213 [2] (setting [9]) stood at 13.70 mm. In addition, the “DDA + salt” value with S. aureus ATCC 29213 [2] (setting [10]) was 19.30 mm. Also, the “DDA (diameter of zone of inhibition)” value with S. aureus ATCC 29213 [3] (setting [11]) worked out at 17.54 mm. The same molecule registered an MIC against S. aureus ATCC 29213 [4] (setting [12]) of 7.8 µg/mL (≈ 54 µM).
Consider `CC1=C(C)C(=O)C(C)=C(C)C1=O` [duroquinone, 2,3,5,6-tetramethyl-p-benzoquinone], for which, in the assay on S. aureus ATCC 29213 [1], the MIC/MBC ratio stood at 0.5. This molecule also registered an MBC against S. aureus ATCC 29213 [1] (Staphylococcus aureus, ATCC29213) of 62.5 µg/mL (≈ 381 µM). Besides, the zone of inhibition at 200 µg/disc in the assay with S. aureus ATCC 29213 [2] (read-out: DDA + blood) is 0 mm; in the assay with S. aureus ATCC 29213 [2] (read-out: DDA + lipid), 16.2 mm; in the assay with S. aureus ATCC 29213 [2] (read-out: DDA + salt) it was 16.5 mm; with S. aureus ATCC 29213 [3] (ATCC29213, read-out: DDA (diameter of zone of inhibition)) it was 13.3 mm. Besides, in the assay on S. aureus ATCC 29213 [4] (Staphylococcus aureus, ATCC29213, 24 h, pH 7.2), the MIC is 31.2 µg/mL (≈ 190 µM).
For `CC1=CC(=O)C(C(C)C)=CC1=O` [thymoquinone], the MIC/MBC ratio with P. acnes NCTC 737 [5] and in the assay on S. aureus ATCC 29213 [1] was 0.5 each time. Further, the zone of inhibition at 200 µg/disc in the assay on S. aureus ATCC 29213 [3] (setting [13]) was found to be 15.6 mm; in the assay with P. acnes NCTC 737 [7] it was 27.5 mm. Besides, in the assay on P. acnes NCTC 737 [6], the “effect of lipid on antimicrobial activity” value is recorded as “potentiated”.
For the molecule `Cc1ccc(O)c(O)c1` [4-methylcatechol], the MIC/MBC ratio in the assay with S. aureus ATCC 29213 [1] turned out to be 1. For the same molecule, the MBC in the assay on S. aureus ATCC 29213 [1] (setting [14]) is 31.2 µg/mL (≈ 252 µM). Further, the zone of inhibition at 200 µg/disc in the assay with S. aureus ATCC 29213 [2] (setting [15]) came to 20 mm; with S. aureus ATCC 29213 [2] (setting [16]), 0 mm; with S. aureus ATCC 29213 [2] (setting [17]), 20.9 mm; in the assay on S. aureus ATCC 29213 [3] (setting [13]), 18.3 mm. The minimal inhibitory concentration (MIC) in the assay on S. aureus ATCC 29213 [4] (setting [18]) came out at 31.2 µg/mL (≈ 252 µM).
Take `Oc1ccc(O)c(Br)c1` [2-bromo-p-hydroquinone]: in the assay with S. aureus ATCC 29213 [1], the MBC worked out at 31.25 µg/mL (≈ 165 µM) and the MIC/MBC ratio is 1. Also, the “DDA + lipid” value in the assay on S. aureus ATCC 29213 [2] (setting [8]) is reported as 17.43 mm. Also, the “DDA + blood” value in the assay with S. aureus ATCC 29213 [2] (setting [9]) is reported as 14.94 mm. Besides, the “DDA + salt” value with S. aureus ATCC 29213 [2] (setting [10]) is reported as 18.99 mm. The “DDA (diameter of zone of inhibition)” value with S. aureus ATCC 29213 [3] (setting [11]) stood at 20.75 mm. The MIC against S. aureus ATCC 29213 [4] (setting [12]) turned out to be 31.25 µg/mL (≈ 165 µM).
Take `CC(C)(C)c1ccc(O)c(O)c1` [4-t-butylcatechol]: the MIC/MBC ratio with S. aureus ATCC 29213 [1] is recorded as 1. For the same molecule, in the assay on S. aureus ATCC 29213 [1] (setting [14]), the minimum bactericidal concentration (MBC) turned out to be 62.5 µg/mL (≈ 376 µM). Also, the zone of inhibition at 200 µg/disc with S. aureus ATCC 29213 [2] (setting [15]) amounted to 10.9 mm; in the assay on S. aureus ATCC 29213 [2] (setting [16]), 9.65 mm; in the assay with S. aureus ATCC 29213 [2] (setting [17]) it was 13.1 mm; in the assay with S. aureus ATCC 29213 [3] (setting [13]), 12 mm. Also, the MIC in the assay on S. aureus ATCC 29213 [4] (setting [18]) worked out at 62.5 µg/mL (≈ 376 µM).
As to `CC(C)(C)C1=CC(=O)C=C(C(C)(C)C)C1=O` [2,6-di-t-butyl-p-benzoquinone], the MIC/MBC ratio with S. aureus ATCC 29213 [1] was 0.25. Further, the MBC in the assay on S. aureus ATCC 29213 [1] (setting [14]) is 250 µg/mL (≈ 1130 µM). Besides, the zone of inhibition at 200 µg/disc with S. aureus ATCC 29213 [2] (setting [15]) stood at 9.37 mm; in the assay with S. aureus ATCC 29213 [2] (setting [16]), 0 mm; in the assay on S. aureus ATCC 29213 [2] (setting [17]), 0 mm; in the assay on S. aureus ATCC 29213 [3] (setting [13]), 0 mm. The MIC with S. aureus ATCC 29213 [4] (setting [18]) amounted to 62.5 µg/mL (≈ 284 µM).
On to `Oc1cc(Cl)c(O)c(Cl)c1` [2,6-dichloro-p-hydroquinone], for which, in the assay with S. aureus ATCC 29213 [1], the MBC was 31.25 µg/mL (≈ 175 µM) and the MIC/MBC ratio is reported as 1. In addition, the “DDA + lipid” value in the assay with S. aureus ATCC 29213 [2] (setting [8]) was 14.32 mm. The “DDA + blood” value with S. aureus ATCC 29213 [2] (setting [9]) is on record as 11.83 mm. In addition, the “DDA + salt” value in the assay with S. aureus ATCC 29213 [2] (setting [10]) is listed as 16.19 mm. For the same molecule, in the assay with S. aureus ATCC 29213 [3] (setting [11]), the “DDA (diameter of zone of inhibition)” value is reported as 16.29 mm. The molecule further returned an MIC in the assay on S. aureus ATCC 29213 [4] (setting [12]) of 31.25 µg/mL (≈ 175 µM).

These data come from patent US20090030086A1, “ANTIMICROBIAL AGENTS” (priority 2005, published 2009).
